We go through one molecule from article PMC9012168 (BioProcess international, 2018).

Structures are written as SMILES. pIC50: −log10 of the molar value. Starred links: 1 amine or outer side, 2 acyl side, 3 side chain; linkers in the order of their positions; H or OH if unused. Positions of bridges follow the written chain, without caps; N, C: chain ends. Non-standard residues stand in square brackets, D forms with d. Residues, ends and D or L forms follow the SMILES beside them. Chains are numbered I, II in the order given. Actinocin(9to1) = Cc1c2oc3c(C)ccc(C(=O)[*:1])c3nc-2c(C(=O)[*:2])c(N)c1=O; NMeV = CN[C@H](C(=O)O)C(C)C; Sar = CNCC(=O)O

This data set in a line: in vitro. It is filed as cell-based. The note with it: human.

What is called pIC50 is the negative decadic logarithm of the IC50, by convention in mol/L. The low end stands for a high IC50, the high end for a low IC50. Molecule `Cc1c2oc3c(C)ccc(C(=O)N[C@@H]4C(=O)N[C@H](C(C)C)C(=O)N5CCC[C@H]5C(=O)N(C)CC(=O)N(C)[C@@H](C(C)C)C(=O)O[C@@H]4C)c3nc-2c(C(=O)N[C@@H]2C(=O)N[C@H](C(C)C)C(=O)N3CCC[C@H]3C(=O)N(C)CC(=O)N(C)[C@@H](C(C)C)C(=O)O[C@@H]2C)c(N)c1=O` [dactinomycin] (I: T[dV]P[Sar][NMeV] / II: T[dV]P[Sar][NMeV]; ester I:1-I:C, II:1-II:C; linker I:N-II:N via Actinocin(9to1)) gave a pIC50 of 8.07.
